Results as given in PubChem BioAssay (NCI).
Values joined by “and” are separate entries in the source; they are usually repeats but may differ in a detail not shown here. Equal values may be shown once.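 These data come from cells grown in 96-well plates and exposed to compound for 48 hours at five concentrations. At the GI50, growth is halved. TGI: concentration producing complete growth inhibition.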

Tests used:
Assay in all cases: NCI tumour cell line growth inhibition, 48 h
LXFL 529 NSCLC = system: LXFL 529 NSCLC
DMS 273 small cell lung = system: DMS 273 small cell lung
M19-MEL melanoma = system: M19-MEL melanoma
HOP-18 NSCLC = system: HOP-18 NSCLC
DMS 114 small cell lung = system: DMS 114 small cell lung
XF 498 CNS = system: XF 498 CNS
MDA-N = system: MDA-N
SNB-78 CNS = system: SNB-78 CNS
RXF-631 renal = system: RXF-631 renal
P388/ADR leukemia = system: P388/ADR leukemia
SN12K1 renal = system: SN12K1 renal

SMILES | TGI (LXFL 529 NSCLC) [µM] | TGI (DMS 273 small cell lung) [µM] | TGI (M19-MEL melanoma) | TGI (HOP-18 NSCLC) [µM] | TGI (DMS 114 small cell lung) | TGI (XF 498 CNS) [µM] | TGI (SNB-78 CNS) | TGI (RXF-631 renal) [µM] | further results
CC(=O)[C@H]1CCC2[C@@H]3CC=C4C[C@@H]([O-])CC[C@]4(C)C3CC[C@@]21C.CC(=O)[C@H]1CCC2[C@@H]3CC=C4C[C@@H]([O-])CC[C@]4(C)C3CC[C@@]21C.CC(=O)[CH-]C(=O)c1ccccc1.CC(=O)[CH-]C(=O)c1ccccc1.Cl.[Ti+4] (stereo partly specified) | > 100 | > 100 | > 100 µM | > 100 |  |  |  |  | GI50 (LXFL 529 NSCLC): 32.1 µM; GI50 (DMS 273 small cell lung): 30.3 µM; GI50 (M19-MEL melanoma): 43.5 µM; GI50 (HOP-18 NSCLC): 42.9 µM
Clc1cccc(C2N3CCCCC3[C@@H]3c4[nH]c5ccccc5c4CCN23)c1 (stereo partly specified) |  | > 100 | 48 µM | > 100 | 55.6 µM | 40 |  |  | 
O=C1C=CC(=O)c2c(O)c3c(c(O)c21)C[C@H](O)[C@H](O)[C@@H]3O |  |  |  |  |  |  |  |  | TGI (MDA-N): 2.95 µM
O=c1c(Cl)c(Cl)cnn1CCCl | 3.1 | 21 | 8.75 µM |  | 18.9 µM | 11.7 | 30.7 µM |  | 
CCCCCCCCCC[C@H](O)[C@H](O)CC[C@@H](O)[C@H]1CC[C@@H]([C@H]2CC[C@H](CCCCCCC[C@@H](O)CC3=C[C@H](C)OC3=O)O2)O1 |  |  |  |  |  |  |  |  | GI50 (MDA-N): 17.5 µM; TGI (MDA-N): 53 µM
CCOC(=O)C(C#N)C1=CC(=O)C(=O)c2ccc(O)cc21 (stereo unspecified) |  |  |  |  |  |  |  |  | TGI (MDA-N): 32.7 µM
CC1(C)CCCC(C)(C2CCC3(C)C2C(O)CC2C4(C)CCC(O)C(C)(C)C4CCC23C)O1 (stereo unspecified) |  |  |  |  |  |  |  |  | TGI (MDA-N): > 100 µM
COc1ccc(S(=O)(=O)N(CC(=O)O)c2ccccc2)cc1 | > 100 | > 100 | > 100 µM | > 100 |  |  |  |  | 
Nc1c(Cl)ncnc1NCCCCCCCCCCCCNc1ncnc(Cl)c1N | 20.5 | 10.2 | 18.8 µM | 83.1 | 2.49 µM | 3.02 | 3.54 µM | 9.72 | 
Cc1cccc(C)c1N1C(=O)C(=O)C(c2nc3ccccc3s2)/C(=N\N)C1=O (stereo unspecified) | > 100 | > 100 | > 100 µM | > 100 | > 100 µM |  | > 100 µM | > 100 | 
O=C(/C=C/c1cccc([N+](=O)[O-])c1)c1ccc([N+](=O)[O-])cc1 | > 100 | > 100 | > 100 µM |  |  | > 100 | > 100 µM | > 100 | 
CCCCCC/C=C\CCCCCCCCCC1=C(CN2CCN(C)CC2)C(=O)C=C(OC)C1=O |  |  |  |  |  |  |  |  | TGI (MDA-N): 21.1 µM
O=C(Nc1ccc(Cl)c(Cl)c1)C(=O)C(C(=O)c1ccccc1-c1ccccc1)C1OC(=O)c2ccccc21 (stereo unspecified) | 21 |  | 33.9 µM |  | 27 µM | 26.5 | > 100 µM | 37.7 | 
CC(C)CCCCCCCCCCCCC(=O)NCC(=O)NC1C(O)C(O)C(Nc2ncnc3nc[nH]c23)OC1C(O)CO (stereo unspecified) |  | 0.00174 | 0.0409 µM and 0.0156 µM | 0.00108 | 0.0278 µM and 0.00687 µM |  | 0.0647 µM and 0.244 µM |  | GI50 (DMS 114 small cell lung): 0.005 µM; GI50 (P388/ADR leukemia): 0.005 µM; GI50 (MDA-N): < 1e-05 µM; GI50 (M19-MEL melanoma): 0.005 µM; GI50 (SN12K1 renal): 0.00646 µM; TGI (SN12K1 renal): 0.332 µM and 0.223 µM; GI50 (SNB-78 CNS): 0.005 µM
CC1=CC(C)(C)NN1C1=NS(=O)(=O)c2ccccc2N1C |  |  |  |  |  |  |  |  | TGI (MDA-N): > 100 µM
COC(=O)[C@@H]1Cc2c([nH]c3ccccc23)[C@H](c2ccccc2)N1 | > 100 | 57.8 | > 100 µM | > 100 | 84 µM |  |  |  | 
COC1OC2COC(C)(C)OC2C(OC(C)=O)C1NC(=O)N(CCCl)N=O (stereo unspecified) | > 100 | > 100 | > 100 µM | > 100 | > 100 µM | > 100 | > 100 µM |  | 
C/C=C1/CC(C)C(C)(O)C(=O)OCC2C(O)CN3CCC(OC1=O)C23 (stereo unspecified) |  |  |  |  |  |  |  |  | TGI (MDA-N): > 100 µM
O=C(Nc1ccc(Cl)cc1Cl)OC(Cn1cncn1)c1ccc(Cl)cc1Cl (stereo unspecified) | 30.6 | 31.4 | 30.8 µM | 41.5 | 29.8 µM | 27.9 | 38.6 µM | 33.2 | 
CCNC(=O)OCc1c(COC(=O)NCC)c(-c2ccc(Cl)c(Cl)c2)n2c1CCC2 | 34.8 | 31.1 | 58.1 µM |  | 25.4 µM | 36.3 |  |  | 
CN(/N=C\c1ccnc2ccccc12)c1ccc([N+](=O)[O-])cc1 | > 100 | > 100 | > 100 µM |  |  | > 100 | > 100 µM | > 100 | 
COc1c(-c2ccccc2)nc2ccc(Oc3ccccc3)nn12 | > 100 | > 100 | > 100 µM | > 87.1 | > 87.7 µM | 66.9 | > 100 µM |  | 

SMILES | TGI (LXFL 529 NSCLC) [µM] | TGI (DMS 273 small cell lung) [µM] | TGI (M19-MEL melanoma) | TGI (HOP-18 NSCLC) [µM] | TGI (DMS 114 small cell lung) | TGI (XF 498 CNS) [µM] | TGI (SNB-78 CNS) | TGI (RXF-631 renal) [µM] | further results
Cc1nc2c(o1)C(=Nc1ccccc1)c1nc(C)oc1C2=Nc1ccccc1 | 45.1 | 50.5 | 47.6 µM | 52.9 | 60.4 µM | 33.2 | > 100 µM |  | 
N#CC(C(=O)/C(=N\NC(N)=O)C(C#N)c1ccccc1)c1ccccc1 (stereo unspecified) | > 100 | > 100 |  |  |  |  | > 100 µM | > 100 | 
N/N=C(/Cc1nc2ccc(C(=O)c3ccccc3)cc2[nH]c1=O)C(=O)Nc1ccc([N+](=O)[O-])cc1[N+](=O)[O-] | > 100 | > 100 | > 100 µM | > 100 | > 100 µM | > 100 | > 100 µM |  | GI50 (DMS 114 small cell lung): > 100 µM; GI50 (LXFL 529 NSCLC): > 100 µM; GI50 (DMS 273 small cell lung): > 100 µM; GI50 (M19-MEL melanoma): > 100 µM; GI50 (SNB-78 CNS): > 100 µM
O=C1O/C(=C/c2ccccc2)C(c2ccccc2)=C1O |  |  |  |  |  |  |  |  | TGI (MDA-N): > 100 µM
COC(=O)C1C(=O)O[C@@H](c2cc(OC)c(OC)cc2OC)C1C(=O)OC (mixture of isomers) | > 100 | > 100 | > 100 µM |  | > 100 µM | > 100 | > 100 µM | > 100 | 
COC(=O)C1=CC2C=CC(C1C(=O)OC)C1C(C(=O)OC)=C(C(=O)OC)C(C(=O)OC)=C(C(=O)OC)C21OC (stereo unspecified) | > 100 | > 100 | > 100 µM | > 100 | > 100 µM |  | > 100 µM | > 100 | 
O=C1/C(=C/c2ccc(Cl)cc2)CNC/C1=C\c1ccc(Cl)cc1 | 2.4 | 5.78 | 4.81 µM | 18 |  | 7.28 | 12.1 µM | 12.5 | TGI (MDA-N): 16.1 µM
Nc1ccccc1C(=O)CCC1C(=O)NC(=S)NC1=O | > 100 | > 100 | > 100 µM | > 100 | > 100 µM |  |  | > 100 | TGI (MDA-N): > 100 µM
CC(=O)[CH-]C(=O)c1ccccc1.CC(=O)[CH-]C(=O)c1ccccc1.CC(=O)[CH-]C(=O)c1ccccc1.[Nd+3].[OH3+] | > 100 |  | > 100 µM |  |  |  |  |  | GI50 (LXFL 529 NSCLC): 71.1 µM; GI50 (M19-MEL melanoma): 31.4 µM
CN(/N=C/c1ccnc2ccccc12)c1c([N+](=O)[O-])cc([N+](=O)[O-])cc1[N+](=O)[O-] | > 100 | > 100 | > 100 µM | > 100 | > 100 µM | > 100 | > 100 µM |  | 
O=C(CCN1CCCCC1)N1CCc2c([nH]c3ccccc23)C1c1cccnc1 (stereo unspecified) | 38.1 | > 100 | 46.1 µM | > 100 | > 69.7 µM | 57.3 | > 100 µM | > 80.7 | TGI (MDA-N): 75 µM
COc1cc(/C=N/N=C(\N)NO)c(Cl)cc1O | > 100 |  | > 100 µM |  | > 100 µM |  | > 100 µM |  | 
Cc1cc(C)c(-c2noc(-c3ccc(Cl)cc3)c2C2=NCCCN2)c(C)c1 | > 100 |  | > 100 µM | > 100 |  | 54.8 | > 100 µM | > 100 | 
Clc1cccc(-c2nnc(-c3nn(-c4ccccc4)c4nc5ccccc5nc34)o2)c1 | > 100 | > 100 | > 100 µM | > 100 | > 100 µM | > 100 | > 100 µM |  | 
NC1=NN(c2ccccc2)C(=O)C1C(=O)C(=O)Nc1ccc(Cl)c(Cl)c1 (stereo unspecified) |  | > 100 | > 100 µM | > 100 | > 100 µM |  | > 100 µM | > 100 | 
NS(=O)(=O)c1cc(C(=O)O)c(O)c2ccccc12 |  |  |  |  |  |  |  |  | TGI (MDA-N): > 100 µM
CNS(=O)(=O)NNS(=O)(=O)c1ccc(OC)cc1 | > 100 | > 100 | > 100 µM |  | > 100 µM | > 100 |  | > 100 | 
O=[N+]([O-])c1cc([N+](=O)[O-])c(Nn2c3ccccc3c3ccccc32)c([N+](=O)[O-])c1 |  |  |  |  |  |  |  |  | TGI (MDA-N): 12.2 µM
O=C(/C=C\c1cccc2ccccc12)c1ccc(Cl)cc1Cl | 32.8 | 34.8 | 35.9 µM | 48.1 | 30.8 µM |  | 45.5 µM | 74.3 | 
COc1ccc(OC)c(/C=N/N=C(\N)NO)c1 | > 100 | > 100 | > 100 µM |  | > 100 µM | 58.3 | > 100 µM | > 100 | 
O=C1c2ccccc2C2CCC1c1ccccc12 (stereo unspecified) | > 100 | 71.4 | 96.1 µM | > 100 | 57 µM | 91.6 | > 100 µM |  | 
COC(=O)[C@@]12CC(C(C)C)[C@H]3CC(C(=O)C=C1OC)[C@H]32 (stereo partly specified) | > 100 | > 100 | > 100 µM | > 100 | > 100 µM | > 100 | > 100 µM | > 100 | 
